Results from PubChem BioAssay (NCI).
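48-hour exposure; five concentrations; linearly interpolated endpoints. Abbreviation: GI50, concentration required for 50% inhibition of growth. TGI marks complete inhibition of growth.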

What was measured:
Test in all cases: NCI tumour cell line growth inhibition, 48 h
A549 NSCLC = tested on: A549 NSCLC
NCI-H522 lung = tested on: NCI-H522 lung
SNB-19 CNS = tested on: SNB-19 CNS
HCC-2998 colon = tested on: HCC-2998 colon
HCT-116 colon = tested on: HCT-116 colon
BT-549 breast = tested on: BT-549 breast
IGROV1 ovarian = tested on: IGROV1 ovarian
MCF7 breast = tested on: MCF7 breast
SK-OV-3 ovarian = tested on: SK-OV-3 ovarian
HS 578T breast = tested on: HS 578T breast
SN12C renal = tested on: SN12C renal
SF-295 CNS = tested on: SF-295 CNS
CAKI-1 renal = tested on: CAKI-1 renal
PC-3 prostate = tested on: PC-3 prostate
A498 renal = tested on: A498 renal
ACHN renal = tested on: ACHN renal
MOLT-4 leukemia = tested on: MOLT-4 leukemia
NCI-H23 lung = tested on: NCI-H23 lung
RXF 393 renal = tested on: RXF 393 renal
SK-MEL-5 melanoma = tested on: SK-MEL-5 melanoma
HL-60(TB) leukemia = tested on: HL-60(TB) leukemia
SR leukemia = tested on: SR leukemia
MDA-MB-231 breast = tested on: MDA-MB-231 breast
CCRF-CEM leukemia = tested on: CCRF-CEM leukemia
OVCAR-3 ovarian = tested on: OVCAR-3 ovarian
HOP-92 NSCLC = tested on: HOP-92 NSCLC
SK-MEL-28 melanoma = tested on: SK-MEL-28 melanoma
HT29 colon = tested on: HT29 colon
OVCAR-4 ovarian = tested on: OVCAR-4 ovarian
DU-145 prostate = tested on: DU-145 prostate
LOX IMVI melanoma = tested on: LOX IMVI melanoma
SF-539 CNS = tested on: SF-539 CNS
SNB-75 CNS = tested on: SNB-75 CNS
MALME-3M melanoma = tested on: MALME-3M melanoma
UACC-62 melanoma = tested on: UACC-62 melanoma
HCT-15 colon = tested on: HCT-15 colon
M14 melanoma = tested on: M14 melanoma
COLO 205 colon = tested on: COLO 205 colon
MDA-MB-435 = tested on: MDA-MB-435
RPMI-8226 leukemia = tested on: RPMI-8226 leukemia
OVCAR-5 ovarian = tested on: OVCAR-5 ovarian
TK-10 renal = tested on: TK-10 renal
OVCAR-8 ovarian = tested on: OVCAR-8 ovarian
KM12 colon = tested on: KM12 colon
UACC-257 melanoma = tested on: UACC-257 melanoma
EKVX NSCLC = tested on: EKVX NSCLC
NCI-H460 lung = tested on: NCI-H460 lung
T-47D breast = tested on: T-47D breast
NCI-H226 lung = tested on: NCI-H226 lung
SK-MEL-2 melanoma = tested on: SK-MEL-2 melanoma
SF-268 CNS = tested on: SF-268 CNS
U251 CNS = tested on: U251 CNS
SW-620 colon = tested on: SW-620 colon
HOP-62 NSCLC = tested on: HOP-62 NSCLC
UO-31 renal = tested on: UO-31 renal
NCI/ADR-RES ovarian = tested on: NCI/ADR-RES ovarian
786-0 renal = tested on: 786-0 renal
K-562 leukemia = tested on: K-562 leukemia

O=C(NNc1nc2cc(F)cc(F)c2n2cccc12)c1ncccn1
GI50 (A549 NSCLC): 0.437 µM
TGI (A549 NSCLC): 8.67 µM
GI50 (NCI-H522 lung): 1.03 µM
TGI (NCI-H522 lung): > 17 µM
GI50 (SNB-19 CNS): 0.688 µM
TGI (SNB-19 CNS): > 30 µM
GI50 (HCC-2998 colon): 0.863 µM
TGI (HCC-2998 colon): > 30 µM
GI50 (HCT-116 colon): 0.341 µM
TGI (HCT-116 colon): > 21.1 µM
GI50 (BT-549 breast): 1.04 µM
TGI (BT-549 breast): 17 µM
GI50 (IGROV1 ovarian): 0.42 µM
TGI (IGROV1 ovarian): 22.4 µM
GI50 (MCF7 breast): 0.862 µM
TGI (MCF7 breast): 10.7 µM
GI50 (SK-OV-3 ovarian): 0.443 µM
TGI (SK-OV-3 ovarian): 9.81 µM
GI50 (HS 578T breast): 3.18 µM
TGI (HS 578T breast): > 28.6 µM
GI50 (SN12C renal): 1.2 µM
TGI (SN12C renal): > 30 µM
GI50 (SF-295 CNS): 0.176 µM
TGI (SF-295 CNS): 4.99 µM
GI50 (CAKI-1 renal): 0.336 µM
TGI (CAKI-1 renal): 9.5 µM
GI50 (PC-3 prostate): 0.786 µM
TGI (PC-3 prostate): > 26.8 µM
GI50 (A498 renal): 1.2 µM
TGI (A498 renal): 5.85 µM
GI50 (ACHN renal): 0.164 µM
TGI (ACHN renal): 3.83 µM
GI50 (MOLT-4 leukemia): 0.613 µM
TGI (MOLT-4 leukemia): > 30 µM
GI50 (NCI-H23 lung): 1.35 µM
TGI (NCI-H23 lung): > 30 µM
GI50 (RXF 393 renal): 1.31 µM
TGI (RXF 393 renal): 5.64 µM
GI50 (SK-MEL-5 melanoma): 0.584 µM
TGI (SK-MEL-5 melanoma): 2.86 µM
GI50 (HL-60(TB) leukemia): 0.803 µM
TGI (HL-60(TB) leukemia): 5.07 µM
GI50 (SR leukemia): 0.221 µM
TGI (SR leukemia): > 30 µM
GI50 (MDA-MB-231 breast): 1.22 µM
TGI (MDA-MB-231 breast): > 25.3 µM
GI50 (CCRF-CEM leukemia): 0.327 µM
TGI (CCRF-CEM leukemia): > 30 µM
GI50 (OVCAR-3 ovarian): 0.73 µM
TGI (OVCAR-3 ovarian): > 30 µM
GI50 (HOP-92 NSCLC): 1.24 µM
TGI (HOP-92 NSCLC): 20.7 µM
GI50 (SK-MEL-28 melanoma): 0.682 µM
TGI (SK-MEL-28 melanoma): > 30 µM
GI50 (HT29 colon): 0.94 µM
TGI (HT29 colon): > 30 µM
GI50 (OVCAR-4 ovarian): 0.801 µM
TGI (OVCAR-4 ovarian): > 23.7 µM
GI50 (DU-145 prostate): 0.751 µM
TGI (DU-145 prostate): > 30 µM
GI50 (LOX IMVI melanoma): 0.487 µM
TGI (LOX IMVI melanoma): 15.8 µM
GI50 (SF-539 CNS): 0.728 µM
TGI (SF-539 CNS): > 16.6 µM
GI50 (SNB-75 CNS): 0.793 µM
TGI (SNB-75 CNS): > 27.6 µM
GI50 (MALME-3M melanoma): 1.05 µM
TGI (MALME-3M melanoma): 19.6 µM
GI50 (UACC-62 melanoma): 0.377 µM
TGI (UACC-62 melanoma): > 9.21 µM
GI50 (HCT-15 colon): 0.121 µM
TGI (HCT-15 colon): 6.21 µM
GI50 (M14 melanoma): 0.39 µM
TGI (M14 melanoma): 5.62 µM
GI50 (COLO 205 colon): 0.773 µM
TGI (COLO 205 colon): > 30 µM
GI50 (MDA-MB-435): 1.24 µM
TGI (MDA-MB-435): > 30 µM
GI50 (RPMI-8226 leukemia): 1.18 µM
TGI (RPMI-8226 leukemia): > 30 µM
GI50 (OVCAR-5 ovarian): 1.18 µM
TGI (OVCAR-5 ovarian): > 30 µM
GI50 (TK-10 renal): 0.427 µM
TGI (TK-10 renal): 8.02 µM
GI50 (OVCAR-8 ovarian): 0.509 µM
TGI (OVCAR-8 ovarian): > 30 µM
GI50 (KM12 colon): 0.537 µM
TGI (KM12 colon): > 30 µM
GI50 (UACC-257 melanoma): 1.18 µM
TGI (UACC-257 melanoma): 15.7 µM
GI50 (EKVX NSCLC): 0.409 µM
TGI (EKVX NSCLC): 8.71 µM
GI50 (NCI-H460 lung): 0.212 µM
TGI (NCI-H460 lung): 3.9 µM
GI50 (T-47D breast): 1.06 µM
TGI (T-47D breast): 22.7 µM
GI50 (NCI-H226 lung): 0.585 µM
TGI (NCI-H226 lung): 6.67 µM
GI50 (SK-MEL-2 melanoma): 2.95 µM
TGI (SK-MEL-2 melanoma): 30 µM
GI50 (SF-268 CNS): 0.521 µM
TGI (SF-268 CNS): > 30 µM
GI50 (U251 CNS): 0.282 µM
TGI (U251 CNS): > 19.1 µM
GI50 (SW-620 colon): 1.01 µM
TGI (SW-620 colon): > 30 µM
GI50 (HOP-62 NSCLC): 0.226 µM
TGI (HOP-62 NSCLC): 22.4 µM
GI50 (UO-31 renal): 0.116 µM
TGI (UO-31 renal): 3.67 µM
GI50 (NCI/ADR-RES ovarian): 0.218 µM
TGI (NCI/ADR-RES ovarian): 10.3 µM
GI50 (786-0 renal): 0.901 µM
TGI (786-0 renal): > 14.8 µM
GI50 (K-562 leukemia): 1 µM
TGI (K-562 leukemia): > 30 µM
